In ChEMBL document CHEMBL1201862, “PubChem BioAssay data set” (2004):
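Five concentrations, 48 hours, 96-well plates. GI50 is the concentration that inhibits growth by half.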 Activity calls are given as the source filed them. Rule as the data show it: active = GI50 up to about 1.1 µM and inactive = higher.

Tests used:
Assay in all cases: growth of human tumour cells (NCI), 48 h
NCI-H522 = tested on: NCI-H522
T47D = tested on: T47D
SK-OV-3 = tested on: SK-OV-3
SNB-75 = tested on: SNB-75
A549 = tested on: A549
EKVX = tested on: EKVX
SF-295 = tested on: SF-295
NCI-H226 = tested on: NCI-H226
ACHN = tested on: ACHN
DU-145 = tested on: DU-145
LOX IMVI = tested on: LOX IMVI
MDA-MB-435 = tested on: MDA-MB-435
KM12 = tested on: KM12
MDA-N = tested on: MDA-N
A498 = tested on: A498
SF-268 = tested on: SF-268
BT-549 = tested on: BT-549
NCI-H460 = tested on: NCI-H460
HOP-92 = tested on: HOP-92

| SMILES | GI50 (NCI-H522) | GI50 (T47D) | GI50 (SK-OV-3) | GI50 (SNB-75) | GI50 (A549) | GI50 (EKVX) | GI50 (SF-295) | GI50 (NCI-H226) | GI50 (ACHN) | GI50 (DU-145) | GI50 (LOX IMVI) | GI50 (MDA-MB-435) | GI50 (KM12) | GI50 (MDA-N) | GI50 (A498) | GI50 (SF-268) | GI50 (BT-549) | GI50 (NCI-H460) | GI50 (HOP-92) |
| --- | --- | --- | --- | --- | --- | --- | --- | --- | --- | --- | --- | --- | --- | --- | --- | --- | --- | --- | --- |
| Cc1ccc(/N=N/c2c(O)c3ccccc3[nH]c2=O)c(S(=O)(=O)N(C)C)c1 | > 100 µM (inactive) | > 100 µM (inactive) | > 100 µM (inactive) | > 100 µM (inactive) | > 100 µM (inactive) | > 100 µM (inactive) | > 100 µM (inactive) | > 100 µM (inactive) | > 100 µM (inactive) | > 100 µM (inactive) | > 100 µM (inactive) | > 100 µM (inactive) | > 100 µM (inactive) | > 100 µM (inactive) | > 100 µM (inactive) | > 100 µM (inactive) | > 100 µM (inactive) | > 100 µM (inactive) | > 100 µM (inactive) |
| CO[P@@]1(=O)O[C@@H](c2ccccc2)[C@H](O)[C@]1(O)c1ccccc1 | > 100 µM (inactive) | > 100 µM (inactive) | > 100 µM (inactive) | > 100 µM (inactive) | > 100 µM (inactive) | 24.9 µM (inactive) | > 100 µM (inactive) | > 100 µM (inactive) | > 100 µM (inactive) | > 100 µM (inactive) | > 100 µM (inactive) | > 100 µM (inactive) | > 100 µM (inactive) | > 100 µM (inactive) | > 100 µM (inactive) | > 100 µM (inactive) | > 100 µM (inactive) | > 100 µM (inactive) | > 100 µM (inactive) |
| COc1cccc(C2c3cc4c(cc3OC(NNc3ccccc3)C2C)OCO4)c1O (stereo unspecified) | 2.36 µM (inactive) | 6.15 µM (inactive) | 21.9 µM (inactive) | 6.61 µM (inactive) | 3.65 µM (inactive) | 4.88 µM (inactive) | 2.06 µM (inactive) | 14.5 µM (inactive) | 1.5 µM (inactive) | 5.13 µM (inactive) | 12.7 µM (inactive) | 2.59 µM (inactive) | 2.38 µM (inactive) | 2.14 µM (inactive) | 14 µM (inactive) | 12.2 µM (inactive) | 7.18 µM (inactive) | 2.81 µM (inactive) | 12.6 µM (inactive) |
| Cc1ccc(C(C)C)c(OCC(=O)N/N=C/c2c[nH]c3ccc(Br)cc23)c1 | 1.43 µM (inactive) | 5.62 µM (inactive) | 2.58 µM (inactive) | 2.13 µM (inactive) | 3.1 µM (inactive) | 2.86 µM (inactive) | 2.45 µM (inactive) |  | 4.85 µM (inactive) | 2.56 µM (inactive) | 3.69 µM (inactive) | 0.904 µM (active) | 1.41 µM (inactive) | 0.923 µM (active) | 4.09 µM (inactive) | 7.85 µM (inactive) | 4.99 µM (inactive) | 2.17 µM (inactive) | 12.3 µM (inactive) |
| O=[N+]([O-])c1cc(C2(N3CCCCC3)CCCCC2)sc1Br | 2.14 µM (inactive) | 1.87 µM (inactive) | 16.3 µM (inactive) |  | 17.1 µM (inactive) | 9.16 µM (inactive) | 15.3 µM (inactive) | 3.33 µM (inactive) | 3.98 µM (inactive) | 3.18 µM (inactive) | 2.82 µM (inactive) | 4.78 µM (inactive) | 6.49 µM (inactive) | 6.41 µM (inactive) | 5.92 µM (inactive) | 7.5 µM (inactive) | 6.82 µM (inactive) | 14.4 µM (inactive) | 8.81 µM (inactive) |
| S=C(N/N=C/c1ccccn1)Nc1ccc(Cl)cc1 | 0.028 µM (active) | 0.0169 µM (active) | 0.0378 µM (active) | 0.236 µM (active) | 0.307 µM (active) | 0.0682 µM (active) | 0.181 µM (active) | 0.0845 µM (active) | 0.0455 µM (active) | 0.126 µM (active) | 0.06 µM (active) | 0.373 µM (active) | 0.175 µM (active) | 0.933 µM (active) | 4.1 µM (inactive) | 0.05 µM (active) | 0.233 µM (active) | 0.0635 µM (active) | 0.282 µM (active) |
| CCOC(=O)c1cc2c3c(c(C(C)=O)c(O)c2[nH]1)N(CC(C)CC)CC3 (stereo unspecified) | 24.2 µM (inactive) | 21.9 µM (inactive) | 60.8 µM (inactive) | 30.7 µM (inactive) | 62.8 µM (inactive) | 38.9 µM (inactive) | 45 µM (inactive) | 41.5 µM (inactive) | > 100 µM (inactive) | > 100 µM (inactive) | 42.2 µM (inactive) | 44.3 µM (inactive) | 56.4 µM (inactive) | 35.7 µM (inactive) | 80.9 µM (inactive) | 35 µM (inactive) | 45.5 µM (inactive) | > 100 µM (inactive) | 45.3 µM (inactive) |
| CCC(=O)Nc1ccc(N2C(=O)/C(=C/c3ccc(O)c(OC)c3)N=C2c2ccccc2)cc1 | 37.6 µM (inactive) | 24 µM (inactive) | 31 µM (inactive) | > 100 µM (inactive) | 21.3 µM (inactive) | 17.8 µM (inactive) | 19.9 µM (inactive) | 19.5 µM (inactive) | 23.3 µM (inactive) | 28.7 µM (inactive) | 36.7 µM (inactive) | 29.5 µM (inactive) | 33.7 µM (inactive) | 31.3 µM (inactive) | 15.8 µM (inactive) | 27 µM (inactive) | 20.4 µM (inactive) | 23.9 µM (inactive) | 46.5 µM (inactive) |
| CCOc1ccc2nc3nc(O)nc(C)c3c(NC(C)(CO)CO)c2c1 | > 100 µM (inactive) | > 100 µM (inactive) | > 100 µM (inactive) | > 100 µM (inactive) | > 100 µM (inactive) | > 100 µM (inactive) | > 100 µM (inactive) | > 100 µM (inactive) | > 100 µM (inactive) | > 100 µM (inactive) | > 100 µM (inactive) | > 100 µM (inactive) | > 100 µM (inactive) | > 100 µM (inactive) | > 100 µM (inactive) | > 100 µM (inactive) | > 100 µM (inactive) | > 100 µM (inactive) | > 100 µM (inactive) |
| CN(C)CCNC(=O)c1c(O)ccc2c1c1c(n2CCc2ccccc2)C(=O)c2ccccc2C1=O | 8.67 µM (inactive) | 3.66 µM (inactive) | 16.4 µM (inactive) | 14.4 µM (inactive) | 8.53 µM (inactive) | 14.6 µM (inactive) | 4.06 µM (inactive) | 16.8 µM (inactive) | 9.18 µM (inactive) | 4.57 µM (inactive) | 2.43 µM (inactive) | 2.17 µM (inactive) | 4.15 µM (inactive) | 2.25 µM (inactive) | 14.8 µM (inactive) | 4.15 µM (inactive) | 16.1 µM (inactive) | 3.58 µM (inactive) | 8.97 µM (inactive) |
| COc1ccc(-c2c(C#N)c(=O)nc(SC)n2C2OCC(OC(C)=O)C(OC(C)=O)C2OC(C)=O)cc1 (stereo unspecified) | 74 µM (inactive) | 63.4 µM (inactive) | > 100 µM (inactive) | 95.9 µM (inactive) | 82.4 µM (inactive) | 87.5 µM (inactive) | > 100 µM (inactive) | > 100 µM (inactive) | 75 µM (inactive) | > 100 µM (inactive) | 64.1 µM (inactive) | > 100 µM (inactive) | > 100 µM (inactive) | 83.4 µM (inactive) | 62.1 µM (inactive) | 55 µM (inactive) | 68.2 µM (inactive) | 27.2 µM (inactive) | > 100 µM (inactive) |
| c1ccc(N/N=C2\CC(c3ccccc3)Oc3ccccc32)cc1 (stereo unspecified) | 21.8 µM (inactive) | 26.4 µM (inactive) | > 100 µM (inactive) | 22.9 µM (inactive) | 53.7 µM (inactive) | 21.9 µM (inactive) | 42.7 µM (inactive) | > 100 µM (inactive) | 43.5 µM (inactive) | 36 µM (inactive) | 34.2 µM (inactive) | 27.5 µM (inactive) | 32.4 µM (inactive) | 31.5 µM (inactive) | 42.2 µM (inactive) | 35.8 µM (inactive) | 39.8 µM (inactive) | 45 µM (inactive) | 39.1 µM (inactive) |
| C=CCn1c(N)c(C#N)c(C#N)c1CCC | > 100 µM (inactive) | > 100 µM (inactive) | > 100 µM (inactive) | 25 µM (inactive) | > 100 µM (inactive) | 42.7 µM (inactive) | > 100 µM (inactive) | > 100 µM (inactive) | > 100 µM (inactive) | > 100 µM (inactive) | > 100 µM (inactive) | > 100 µM (inactive) | > 100 µM (inactive) | > 100 µM (inactive) | > 100 µM (inactive) | > 100 µM (inactive) | > 100 µM (inactive) |  | > 100 µM (inactive) |
| CC1C2CC(CC2(C)O)C1(C)C (stereo unspecified) | > 100 µM (inactive) | > 100 µM (inactive) | > 100 µM (inactive) | > 100 µM (inactive) | > 100 µM (inactive) | > 100 µM (inactive) | > 100 µM (inactive) | > 100 µM (inactive) | > 100 µM (inactive) | > 100 µM (inactive) |  | > 10 µM (inactive) | > 100 µM (inactive) | > 100 µM (inactive) | > 100 µM (inactive) | > 100 µM (inactive) | > 100 µM (inactive) | > 100 µM (inactive) | > 100 µM (inactive) |
| O=C(O)c1cc(C(=O)C(=O)c2cc(C(=O)O)c(O)c3ccccc23)c2ccccc2c1O | > 100 µM (inactive) | > 100 µM (inactive) | > 100 µM (inactive) | > 100 µM (inactive) | > 100 µM (inactive) | > 100 µM (inactive) | > 100 µM (inactive) | > 100 µM (inactive) | > 100 µM (inactive) | > 100 µM (inactive) | > 100 µM (inactive) | > 100 µM (inactive) | > 100 µM (inactive) | > 100 µM (inactive) | > 100 µM (inactive) | > 100 µM (inactive) | > 100 µM (inactive) | > 100 µM (inactive) | > 100 µM (inactive) |
